In patent US5508299A, “Imidazolyl-substituted cyclohexane derivatives” (Bayer Aktiengesellschaft, priority 1992, dated 1996):

Legend:
angiotensin II receptor = biological target: T1, angiotensin II receptor (Bos taurus, UniProt P25104); test: Angiotensin II receptor binding in membrane fractions of the adrenal cortex (bovine); settings: bovine adrenal cortex membranes; 3H-angiotensin II (3-5 nM); 60 min, room temperature, pH 7.2
T1 construct: partially purified membrane fractions of bovine AGC using radioactive angiotensin II; from tissue; host or cells: bovine adrenal gland cortex, partially purified membrane fractions
T1 sequence (P25104 1-359): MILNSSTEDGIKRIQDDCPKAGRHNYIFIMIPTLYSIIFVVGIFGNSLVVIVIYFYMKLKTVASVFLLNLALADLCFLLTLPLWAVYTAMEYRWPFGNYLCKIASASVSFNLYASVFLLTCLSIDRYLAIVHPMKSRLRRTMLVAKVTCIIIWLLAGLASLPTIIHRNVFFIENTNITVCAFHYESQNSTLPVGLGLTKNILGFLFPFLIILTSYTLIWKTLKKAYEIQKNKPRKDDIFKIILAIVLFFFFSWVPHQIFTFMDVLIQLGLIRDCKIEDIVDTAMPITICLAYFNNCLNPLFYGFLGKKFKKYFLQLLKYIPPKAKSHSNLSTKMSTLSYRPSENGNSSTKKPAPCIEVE
Excerpt: Interaction of the compounds according to the invention with the angiotensin II receptor in membrane fractions of the adrenal cortex (bovine)
Adrenal gland cortices from cattle (AGCs), which have been freshly removed and carefully freed from gland medulla, are comminuted in sucrose solution (0.32M) with the aid of an Ultra-Turrax (Janke & Kunkel, Staufen i.B.) to give a coarse membrane homogenate and partially purified to give membrane fractions in two centrifugation steps.
The receptor binding investigations are carried out on partially purified membrane fractions of bovine AGC using radioactive angiotensin II in an assay volume of 0.25 ml, which specifically contains the partially purified membranes (50-80 μg), ^3 H-angiotensin II (3-5 nM), test buffer solution (50 mM Tris, pH 7.2, 5 mM MgCl2) and the substances to be investigated. After an incubation period of 60 min at room temperature, the unbound radioactivity of the samples is separated by means of moistened glass fibre filters (Whatman GF/C) and the bound radioactivity is measured […] in a scintillation cocktail after washing the protein with ice-cold buffer solution (50 mM Tris/HCl, pH 7.4, 5% PEG 6000). The raw data were analysed using computer programs to give Ki or IC50 values (K1 : IC50 values corrected for the radioactivity used; IC50 values: concentration at which the substance to be investigated causes a 50% inhibition of the specific binding of the radioligand).

[1] = tested on: contractions of isolated rabbit aorta rings induced by angiotensin II (AII); test: Inhibition of the vascular contraction induced by angiotensin II in isolated rabbit aorta rings in vitro; format: cell-based; settings: Oryctolagus cuniculus, based on the 3rd = submaximal agonist concentration, read-out: IC50 against contractions induced by AII
Procedure: Investigation of the inhibition of the contraction induced by agonists
Rabbits of either sex are stunned by a blow to the back of the head and bled out, or in some cases anaesthetised with Nembutal (about 60-80 mg/kg i.v.) and sacrificed by opening the thorax. The thorax aorta is removed, freed from adhering connective tissue, divided into ring segments 1.5 mm wide and individually transferred under an initial loading of about 3.5 g to 10 ml organ baths containing Krebs-Henseleit nutrient solution, aerated with 95% O2 /5% CO2 and temperature-controlled at 37° C., of the following composition: 119 mmol/l of NaCl; 2.5 mmol/l of CaCl2 ×2H2 O; 1.2 mmol/l of KH2 PO4; 10 mmol/l of glucose; 4.8 mmol/l of KCl; 1.4 mmol/l of MgSO4 ×7 H2 O and 25 mmol/l of NaHCO3.
The contractions are determined isometrically by means of Statham UC2 cells via bridge amplifiers (ifd Mulheim or DSM Aalen) and digitalised by means of A/D converters (System 570, Keithley Munich) and assessed. The agonist dose response curves (DRCs) are plotted hourly. With each DRC, 3 or 4 individual concentrations are applied to the baths at a 4 min interval. After the end of the DRC and subsequent washing-out cycles (16 times in each case about 5 sec/min with the abovementioned nutrient solution), a 28-minute resting or incubation phase follows, within which the contractions as a rule reach the starting value again.
The height of the 3rd DRC, in a normal case, is used as a reference quantity for the assessment of the test substance to be investigated in further runs, which substance is applied to the baths in the following DRCs in increasing dose in each case at the start of the incubation period. Each aorta ring is in this case stimulated for the whole day, always with the same agonist.
Agonists and their standard concentrations (administration volume per individual dose=100 μl):
To calculate the IC50 (concentration at which the substance to be investigated causes a 50% inhibition), the effect is in each case based on the 3rd=submaximal agonist concentration.

[2] = tested on: smooth muscle cells from aortas of pigs; test: Inhibition of the proliferation of smooth muscle cells (3H-thymidine incorporation); format: cell-based, pig; settings: porcine aortic smooth muscle cells
Procedure: Investigation of the inhibition of the proliferation of smooth muscle cells by the compounds according to the invention
To determine the antiproliferative action of the compounds, smooth muscle cells are used which are obtained from aortas of pigs by the media explant technique [R. Ross, J. Cell. Biol. 50, 172, 1971]. The cells are inoculated into suitable culture dishes, as a rule 96-hole plates, and cultured at 37° C. in 5% CO2 for 2-3 days in medium 199 containing 7.5% FCS and 7.5% NCS, 2 mmol L-glutamine and 15 mmol HEPES, pH 7.4. The cells are then synchronised for 2-3 days by withdrawal of serum and then stimulated into growth using serum or other factors. Test compounds are simultaneously added. After 16-20 hours, 1 μCi ^3 H-thymidine is added and after a further 4 hours the incorporation of this substance into the TCA-precipitatable DNA of the cells is determined.
To determine the IC50 values, the active compound concentration is calculated which, on sequential dilution of the active compound, causes half-maximal inhibition of the thymidine incorporation produced by 1% FCS.

Compound | Ki (angiotensin II receptor) [nM] | IC50 [1] [nM] | Inhibition [%] at 10^-6 M [2] [%]
CCCCc1nc(Cl)c(C=O)n1Cc1ccc(C2CCCCC2C(=O)N[C@H](CO)c2ccccc2)cc1 (single isomer, unassigned) [Example 6] |  |  | 41
CCCCc1nc(Cl)c(CO)n1Cc1ccc(C2CCCCC2C(=O)N[C@H](CO)c2ccccc2)cc1 (single isomer, unassigned) [Example 10] |  |  | 12
CCCCc1nc(Cl)c(C=O)n1Cc1ccc(C2CCCCC2C(=O)N[C@H](CO)c2ccccc2)cc1 (single isomer, unassigned) [Example 7] |  |  | 100
CCCCc1nc(Cl)c(CO)n1Cc1ccc(C2CCCCC2C(=O)N[C@H](CO)c2ccccc2)cc1 (single isomer, unassigned) [Example 11] |  |  | 100

The next lines start with results.

Ki (angiotensin II receptor) [nM] | IC50 [1] [nM] | Compound | Inhibition [%] at 10^-6 M [2] [%]
440 |  | CCCCc1nc(Cl)c(C=O)n1Cc1ccc([C@@H]2CCCC[C@H]2c2nnn[nH]2)cc1 (relative stereo) [Example 16, 5-{trans-2-[4-(2-Butyl-4-chloro-5-formyl-imidazol-1-yl-methyl)-phenyl]-cyclohex-1-yl}-tetrazole] | 
120 | 920 | CCCCc1nc(Cl)c(CO)n1Cc1ccc([C@@H]2CCCC[C@H]2C(=O)NS(=O)(=O)c2ccc(C)cc2)cc1 (relative stereo) [Example 9] | 
72 | 240 | CCCCc1nc(Cl)c(C(=O)O)n1Cc1ccc([C@@H]2CCCC[C@H]2C(=O)NS(=O)(=O)c2ccc(C)cc2)cc1 (relative stereo) [Example 13, N-(4-Tolylsulphonyl)-trans-2-[4-(2-butyl-4-chloro-5-carboxy-imidazol-1-yl-methyl)phenyl]-cyclohexane-1-carboxamide] | 
 | 1400 | CCCCc1nc(Cl)c(C(=O)O)n1Cc1ccc([C@@H]2CCCC[C@H]2C(=O)O)cc1 (relative stereo) [Example 4] | 
